The source of these data is ChEMBL document CHEMBL6153147 (J Med Chem, 2025).

Data set [1] concerns the target Serine/threonine-protein kinase PLK3 (Homo sapiens, UniProt Q9H4B4). Kind of data set: Inhibition of human PLK3 using ATF2 as substrate incubated for 40 mins in presence of [gamma-33P]ATP/Mg acetate by scintillation counting analysis.
Data set [2] can be described thus: Volume of distribution at steady state in C57BL/6 mouse at 1 mg/kg, iv measured for 0.5 to 12 htr by LC-MS/MS analysis. Format: ADME, organism-based. To be noted: in vivo, time 0.5-12 hrs, read-out: Vdss.
A short description of data set [3]: Acute toxicity in mouse assessed as damage in kidney at 500 mg/kg, IG qd treated for 7 days by H and E staining based analysis. To be noted: in vivo, po, 168 h, time 7 day. Format: organism-based.
Data set [4] in a line: Acute toxicity in mouse assessed as damage in heart at 500 mg/kg, IG qd treated for 7 days by H and E staining based analysis. Format: organism-based. To be noted: in vivo, po, 168 h, time 7 day.
A short description of data set [5]: Half life in C57BL/6 mouse at 1 mg/kg, iv measured for 0.5 to 12 htr by LC-MS/MS analysis. Format: ADME, organism-based. Particulars: in vivo, time 0.5-12 hrs.
Data set [6] addresses Calcium/calmodulin-dependent protein kinase kinase 1 (Homo sapiens) (UniProt Q8N5S9). Kind of data set: Inhibition of human CaMKK1 assessed as residual activity at 10 uM by kinome selectivity profiling analysis relative to control.
Data set [7] deals with Serine/threonine-protein kinase PLK2 (Homo sapiens, UniProt Q9NYY3). Description: Inhibition of human PLK2 assessed as residual activity at 10 uM by kinome selectivity profiling analysis relative to control.
Serine/threonine-protein kinase PLK2, sequence (Q9NYY3 whole entry, looked up): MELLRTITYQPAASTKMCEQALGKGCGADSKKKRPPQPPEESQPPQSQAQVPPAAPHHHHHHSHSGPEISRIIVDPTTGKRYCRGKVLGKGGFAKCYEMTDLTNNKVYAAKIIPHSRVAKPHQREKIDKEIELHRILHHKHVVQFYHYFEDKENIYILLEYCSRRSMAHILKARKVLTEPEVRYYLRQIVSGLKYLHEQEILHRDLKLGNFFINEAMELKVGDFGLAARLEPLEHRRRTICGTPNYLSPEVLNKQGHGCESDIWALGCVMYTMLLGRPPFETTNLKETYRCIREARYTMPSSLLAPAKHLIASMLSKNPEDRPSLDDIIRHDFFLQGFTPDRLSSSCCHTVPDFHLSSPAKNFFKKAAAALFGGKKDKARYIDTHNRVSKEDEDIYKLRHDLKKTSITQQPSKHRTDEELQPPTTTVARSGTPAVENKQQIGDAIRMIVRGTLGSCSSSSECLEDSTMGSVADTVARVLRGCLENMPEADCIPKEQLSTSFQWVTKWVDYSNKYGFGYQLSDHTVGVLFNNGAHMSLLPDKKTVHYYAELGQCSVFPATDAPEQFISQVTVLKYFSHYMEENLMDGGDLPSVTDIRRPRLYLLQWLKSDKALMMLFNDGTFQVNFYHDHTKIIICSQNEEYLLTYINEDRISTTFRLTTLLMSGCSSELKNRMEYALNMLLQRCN
Data set [8] is described as follows: Acute toxicity in mouse assessed as damage in spleen at 500 mg/kg, IG qd treated for 7 days by H and E staining based analysis. Format: organism-based. To be noted: in vivo, po, 168 h, time 7 day.
A short description of data set [9]: Selectivity ratio of IC50 for inhibition of human PLK3 using ATF2 as substrate to IC50 for inhibition of human PLK1 using ATF2 as substrate.
Another data set has as its target Cytochrome P450 3A4 (Homo sapiens, UniProt P08684). Description: Inhibition of CYP3A4 in human liver microsomes using testosterone as substrate preincubated with compound followed by substrate addition measured after 10 mins in presence of NADPH by LC-MS/MS analysis. Format: ADME, Microsome. For orientation: Liver microsomes are vesicles of endoplasmic reticulum, rich in cytochrome P450 enzymes.

The test system of the next data set is K562. Kind of data set: cells. Particulars: Homo sapiens.
Data set [10] in a line: Cmax in C57BL/6 mouse at 1 mg/kg, iv measured for 0.5 to […] htr by LC-MS/MS analysis. To be noted: in vivo, time 0.5-12 hrs. Format: ADME, organism-based.

Serine/threonine-protein kinase PLK3, sequence (Q9H4B4 whole entry): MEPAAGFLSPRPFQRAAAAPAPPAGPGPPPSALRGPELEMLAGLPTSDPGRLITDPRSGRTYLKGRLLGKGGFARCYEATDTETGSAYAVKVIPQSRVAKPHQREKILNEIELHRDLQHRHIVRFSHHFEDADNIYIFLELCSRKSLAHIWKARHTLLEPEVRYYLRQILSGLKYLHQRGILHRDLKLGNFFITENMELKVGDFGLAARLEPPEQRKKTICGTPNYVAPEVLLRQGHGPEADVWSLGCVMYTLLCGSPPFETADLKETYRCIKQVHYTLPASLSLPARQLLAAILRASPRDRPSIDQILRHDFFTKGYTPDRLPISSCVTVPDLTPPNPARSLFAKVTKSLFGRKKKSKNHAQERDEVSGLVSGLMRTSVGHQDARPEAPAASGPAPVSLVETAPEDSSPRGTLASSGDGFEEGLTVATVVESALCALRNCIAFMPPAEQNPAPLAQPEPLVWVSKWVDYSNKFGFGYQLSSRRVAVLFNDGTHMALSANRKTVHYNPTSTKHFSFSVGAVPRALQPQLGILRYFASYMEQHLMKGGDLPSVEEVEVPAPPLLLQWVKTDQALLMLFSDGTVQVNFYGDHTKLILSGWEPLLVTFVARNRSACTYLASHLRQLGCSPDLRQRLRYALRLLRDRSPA
Cytochrome P450 3A4, sequence (P08684 whole entry): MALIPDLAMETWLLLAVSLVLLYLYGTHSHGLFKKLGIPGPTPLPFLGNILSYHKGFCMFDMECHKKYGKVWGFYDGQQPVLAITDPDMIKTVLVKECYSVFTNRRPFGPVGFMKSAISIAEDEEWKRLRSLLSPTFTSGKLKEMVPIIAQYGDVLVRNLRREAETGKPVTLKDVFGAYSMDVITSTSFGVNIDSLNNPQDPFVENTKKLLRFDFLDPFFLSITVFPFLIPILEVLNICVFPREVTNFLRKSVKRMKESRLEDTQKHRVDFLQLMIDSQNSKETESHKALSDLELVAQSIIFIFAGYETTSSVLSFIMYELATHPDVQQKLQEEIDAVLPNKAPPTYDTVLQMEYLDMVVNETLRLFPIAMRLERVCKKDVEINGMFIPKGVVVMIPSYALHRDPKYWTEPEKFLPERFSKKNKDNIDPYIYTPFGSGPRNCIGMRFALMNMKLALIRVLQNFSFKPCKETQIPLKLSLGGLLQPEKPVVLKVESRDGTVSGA
Calcium/calmodulin-dependent protein kinase kinase 1 (Homo sapiens), sequence (Q8N5S9 whole entry, looked up): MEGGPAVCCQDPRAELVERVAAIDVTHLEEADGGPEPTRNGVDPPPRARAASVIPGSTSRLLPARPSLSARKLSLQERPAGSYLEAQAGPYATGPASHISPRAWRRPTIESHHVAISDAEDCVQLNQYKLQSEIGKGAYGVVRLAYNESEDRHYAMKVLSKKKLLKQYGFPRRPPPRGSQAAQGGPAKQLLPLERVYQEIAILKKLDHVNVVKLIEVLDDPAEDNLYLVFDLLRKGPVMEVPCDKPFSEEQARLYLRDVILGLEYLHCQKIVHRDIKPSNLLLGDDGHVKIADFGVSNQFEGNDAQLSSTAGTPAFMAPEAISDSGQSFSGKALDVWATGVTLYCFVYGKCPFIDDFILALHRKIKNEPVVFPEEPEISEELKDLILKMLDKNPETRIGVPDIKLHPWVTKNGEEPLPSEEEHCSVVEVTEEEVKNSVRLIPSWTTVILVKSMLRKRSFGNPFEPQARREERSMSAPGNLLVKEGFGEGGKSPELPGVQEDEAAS

For `CC[C@@H]1C(=O)N(C)c2cnc(Nc3cc(N4CCN(C)CC4)cc(Cl)c3OCCCO)nc2N1C1CCCC1`, the results for the IC50 (in data set [1]; on Cytochrome P450 3A4; with K562) were 3.95 µM, over 10 µM and 0.08 nM, respectively. In data set [2], the Vd was found to be 3.6 L/kg. The Activity entry in [3] was “Non-toxic”; in data set [4], “Non-toxic”; in [6], 70%; in data set [7], 48%; in data set [8] it was “Non-toxic”. In addition, the half-life in data set [5] is 35.4 min. Moreover, the ratio in data set [9] came to 197. In [10], the Cmax came out at 264 ng/mL.

As a reminder, the IC50 is the point on the concentration scale where inhibition reaches its midpoint. What is called half-life is the time in which the quantity being followed falls by half. Read a high half-life as slow decline. The term Cmax denotes the maximum level reached in the sampled fluid or tissue.
